Experimental data: the supplement of paper PMC4954754
Several values for one entry are separate records, joined by “and”; a condition that tells them apart may be missing. Equal values may be shown once. ± gives the uncertainty stated by the source.

These compounds were tested on HEK293T-Rex XBP1-RLuc (assay: maximal XBP1-RLuc activation from dose-response fit, relative to thapsigargin (% of thapsigargin); higher = stronger activation). Conditions: 18 h.
Description: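 Dose-response of hit compounds in HEK293T-Rex cells stably expressing ERSE-FLuc or XBP1-RLuc reporters, 18 hr treatment, 1536-well; luminescence normalised to 500 nM thapsigargin (100%) and DMSO (0%), fitted to give EC50 (M) and maximal activation; '>' marks EC50 above the top tested dose (~17 µM).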

Row | Structure (SMILES) | maximal XBP1-RLuc activation
1 | Cc1ccc(O)c(NC(=O)c2cc(CC(C)C)on2)c1 | 37.2 ± 9.3
2 | Oc1ccc(-c2cn3ccccc3n2)cc1O | 38.7 ± 3.2
3 | O=C(COC(=O)c1ccc(O)c(O)c1)Nc1nc(-c2ccccc2)cs1 | 53.4 ± 3.6
4 | CCCCCCOc1ccc(/C(C)=N/NC2=NCCN2)cc1[N+](=O)[O-] | 16.3 ± 1.6
5 | Oc1ccc(-c2csc(-c3ccccc3)n2)cc1O | 65.9 ± 7.2
6 | NC(=O)c1c(NC(=O)c2cccc3ccccc23)sc2c1CCC2 | 23.1 ± 6.4
7 | CCCCNc1ncnc2c1cnn2-c1ccc(Cl)cc1 | 2.05 ± 1.1
8 | CCOC(=O)c1sc(NC(=O)c2cccc3ccccc23)nc1C | 3.29 ± 3.4
9 | CCN(CC)c1ccc2cc(-c3nc4ccccc4n3C)c(=O)oc2c1 | 2.95 ± 3.5
10 | O=c1[nH]c(COc2ccccc2)nc2sc3c(c12)CCCC3 | 6.01 ± 1.1
11 | COc1ccc(/C=C(\C#N)c2nc(-c3ccco3)cs2)cc1O | 14.5 ± 4.2
12 | N/C(=N\N=C\c1ccc(O)c(O)c1)c1nonc1N | 41.6 ± 6.1
13 | O=C1N/C(=C/c2ccc(O)cc2)C(=O)N1Cc1ccc(Br)cc1 | 70.6 ± 14
14 | CC(=O)N1CCc2c([nH]c3ccccc23)C12CCN(CCCOc1ccccc1)CC2 | 176 ± 21
15 | Cc1ccc(Nc2nc(N)c3ccccc3n2)cc1Cl | 48.1 ± 5.2
16 | Nc1ccc2sc(-c3cc(Cl)c(N)c(Cl)c3)nc2c1 | 14.9 ± 1.8
17 | CS(=O)(=O)c1ncc(Cl)c(C(=O)C(C#N)c2nc3ccccc3s2)n1 (stereo unspecified) | 266 ± 8.4
18 | CCC(=O)N(Cc1cc2cc(C)ccc2n2nnnc12)C1CCCC1 | 1.64 ± 4.2
19 | Cc1ccc(O)c(NC(=O)c2cc(C3CC3)on2)c1 | 23.7 ± 1.1
20 | CCn1c(/C(C#N)=C/c2ccc(OC)cc2)nc2ccccc21 | 5.17 ± 3
21 | O=C1N/C(=C/c2ccc(O)cc2)C(=O)N1c1cccc(Cl)c1 | 100 ± 3
22 | Nc1ccc2nc(-c3cc(Cl)c(N)c(Cl)c3)[nH]c2c1 | 13.1 ± 1.1

Row | Structure (SMILES) | maximal XBP1-RLuc activation
23 | Oc1ccc(/C=N/Nc2cccc(Cl)n2)c(O)c1 | 33.6 ± 1.8
24 | O=C(CCc1ccccc1)Nc1ccc(Cl)cn1 | 5.24 ± 0.68
25 | CCCNC(=O)c1cc(-c2cccs2)on1 | 9.95 ± 1.4
26 | COc1cn(-c2ccc(F)cc2)nc1C(=O)Nc1ccccc1SC | 40.2 ± 0.22
27 | Cc1ccc(O)c(NC(=O)CCc2ccccc2)c1 | 26.1 ± 0.67
28 | C/C(=N\NC(=O)c1n[nH]c2c1CCCC2)c1ccc(Br)cc1 | 8.77 ± 2
29 | C=CCn1c(N2CCC(C(=O)NCCc3ccc(O)c(O)c3)CC2)nc2ccccc21 | 97.8 ± 31
30 | Cc1ccc(-c2csc(Nc3ccc(O)cc3)n2)cc1 | 127 ± 1.4
31 | CCc1nc2sc(C(=O)c3ccccc3)c(N)c2cc1C | 4.69 ± 3.2
32 | O=[N+]([O-])c1ccccc1N/N=C/c1ccc(O)c(O)c1 | 43.4 ± 3.5
33 | CC(C)CNC(=O)c1cc(-c2ccc(F)cc2)no1 | 4.76 ± 1.8
34 | COc1ccc(/C=C(\C#N)c2nc3ccccc3n2C)cc1 | 0.49 ± 1.4
35 | CCOc1cccc(/C=C2\NC(=S)N(C)C2=O)c1O | 0.0882 ± 1.7
36 | CC(=O)Oc1ccc(C(=O)OCc2ccc(Cl)cc2)cc1OC(C)=O | 24.7 ± 3.7
37 | Cc1ccc(O)c(N/C=C/C(=O)c2ccc(F)cc2)c1 | 84.1 ± 19
38 | O=C1c2cc(O)ccc2-c2ccc(O)cc21 | 73.2 ± 6.5
39 | COc1ccc(-c2cnnc(N/N=C/c3ccc(O)c(O)c3)n2)cc1 | 50.5 ± 3.9
40 | O=C(N/N=C/c1cccc(O)c1O)c1ccccn1 | 20.3 ± 1.1
41 | Nc1ccc2nc(-c3ccc(Br)cc3)[nH]c2c1 | 51.4 ± 4.2
42 | C=CCNC(=O)c1cc(-c2cccs2)on1 | 12.8 ± 0.79
43 | Cc1ccc(O)c(NC(=O)CN(C)S(=O)(=O)c2ccc(Cl)cc2)c1 | 31.4 ± 0.96
44 | N#C/C(=C(/O)c1cc(-c2ccccc2)nc2ccccc12)c1nc2ccccc2[nH]1 | 17.9 ± 1.4

Row | Structure (SMILES) | maximal XBP1-RLuc activation
45 | O=C(/C=C/c1ccco1)Nc1ccccn1 | 1.83 ± 1.4
46 | COc1ccccc1/C=C/C(=O)Nc1ccc(Cl)cn1 | 8.83 ± 0.86
47 | Cc1cc2nc(/C(C#N)=C/c3ccco3)[nH]c2cc1C | 2.69 ± 0.74
48 | N#Cc1c(NC(=O)c2ccc(Br)cc2)sc2c1CCCC2 | 1.87 ± 3.4
49 | O=C(Nc1ccc(O)cc1)c1c(O)c2c([nH]c1=O)CCCC2 | 28.5 ± 3.6
50 | NC(=O)c1c(NC(=O)/C=C/c2ccccc2)sc2c1CCCCC2 | 3.01 ± 2.8
51 | Cc1ccccc1-c1cc(=O)c2cc(Cl)ccc2o1 | 21.7 ± 1.1
52 | CCOc1cccc(C(=O)Nc2ccc(Br)cn2)c1 | 4.18 ± 0.09
53 | O=C(N/N=C\C(Cl)=C\c1ccccc1)c1n[nH]c2c1CCCC2 | 3.51 ± 3.7
54 | COc1ccc(/C=C/c2nc3cc([N+](=O)[O-])ccc3s2)cc1O | 8.74 ± 5.7
55 | CCOc1ccc2nc(NC(=O)c3ccn(C)n3)sc2c1 | 4.53 ± 2.8
56 | COc1c(O)cc2oc(-c3ccc(O)c(O)c3)cc(=O)c2c1O | 57.9 ± 2.8
57 | C(=N/Nc1nnc2c(n1)[nH]c1ccccc12)/c1c[nH]c2ccccc12 | 26 ± 1.9
58 | Nc1nc(Nc2ccccc2)cc(-c2ccccc2)n1 | 3.36 ± 1.2
59 | Cc1ccc2nc(/C(C#N)=C/c3ccc(O)c(O)c3)[nH]c2c1 | 19.7 ± 5.9
60 | COc1ccc(/C(C)=N/OC/C(O)=C(\C#N)c2nc3ccccc3[nH]2)cc1OC | 3.33 ± 0.88
61 | O=C(/C=C/c1ccco1)Nc1ccc(Br)cc1Cl | 4.5 ± 6.9
62 | N#Cc1ccc(-c2cccs2)nc1SCc1ccccn1 | 5.22 ± 2.9
63 | O=C1/C(=C/c2ccc(O)c(O)c2)Oc2cc(O)ccc21 | 24.1 ± 2.3
64 | Nc1cn(-c2ccccc2)nc1-c1cccs1 | 156 ± 4.4
65 | CC(C)c1ccc(/C=N\NC(=O)c2ccccc2)cc1 | 17.7 ± 5.7
66 | CCN(CC)c1ccc(NC(=O)c2cccc(OC)c2)cc1 | 2.18 ± 7.1

Row | Structure (SMILES) | maximal XBP1-RLuc activation
67 | CN(c1ccccc1)S(=O)(=O)c1cccc(C(=O)NCCc2ccc(O)c(O)c2)c1 | 125.1 ± 1
68 | CN(C)/C=N/C1=C(C#N)C(c2ccc3c(c2)OCO3)c2ccc3ccccc3c2O1 (stereo unspecified) | 7.29 ± 3.2
69 | Nc1ccc2nc(/C=C/c3ccccc3)[nH]c2c1 | 23.8 ± 1.7
70 | CN(C)c1ccc(C(=NO)c2ccc(N(C)C)cc2)cc1 | 7.51 ± 2.8
71 | CC(=O)Oc1cc(N2CCOCC2)c(OC(C)=O)c2c1C(=O)c1ccccc1C2=O | 3.44 ± 3.3
72 | Cc1nc(-c2coc3c(O)c(O)ccc3c2=O)cs1 | 20.6 ± 1
73 | CN(C)c1ccc(/C=C/C(=O)NC(=O)c2ccccc2OC(=O)c2ccccc2)cc1 | 11.5 ± 1.4
74 | Oc1cccc(Nc2nc(-c3ccc(O)c(O)c3)cs2)c1 | 51.6 ± 3.2
75 | Cc1ccccc1NC(=O)c1sc2nc(N)c(C#N)c(-c3ccc(C(C)C)cc3)c2c1N | 122 ± 17
76 | Cc1ccc(C)c(/C=N/Nc2nncc3ccccc23)c1 | 8.33 ± 1.1
77 | COc1ccc(CCNC(=O)c2cccc(-c3ccc(N4CCOCC4)nc3)c2)cc1 | 2.04 ± 0.93
78 | O=C(NC1CCCC1)c1cc(-c2cccs2)on1 | 11.9 ± 3.2
79 | COc1cccc(/C=N\NC(=O)c2n[nH]c3c2CCC3)c1 | 4.03 ± 2.5
80 | C=CCNC(=O)c1cc(-c2ccc(F)cc2)on1 | 6.35 ± 5.3
81 | COc1ccc(C2=Nn3c(nnc3-c3ccc(OC)cc3)SC2)cc1 | 16 ± 2.4
82 | Cc1ccc(O)c(-c2cc(C(F)(F)C(F)F)no2)c1 | 23.6 ± 5.9
83 | Cc1ccc2nc(/C(C#N)=C\c3cc(Cl)cc4c3OCOC4)[nH]c2c1 | 3.21 ± 1.4
84 | O=c1cc(-c2ccc(O)c(O)c2)oc2ccccc12 | 43.9 ± 0.95
85 | C/C=C(/C)C(=O)O[C@H]1C(C)=C2[C@H]([C@@H]1OC(=O)CCCCCCC)[C@@](C)(OC(C)=O)C[C@H](OC(=O)CCC)[C@@]1(O)[C@H]2OC(=O)[C@@]1(C)O | 127 and 103
86 | O=c1[nH]c(/C=C2\C=Nc3ccccc32)c(O)n1-c1cccc(Cl)c1 | 74.9 ± 7.7
